# Laboratory results: ChEMBL document CHEMBL4346735, “Discovery and pharmacological evaluation of indole derivatives as potent and selective RORγt inverse agonist for multiple autoimmune conditions” (Bioorg Med Chem Lett, 2019)
# Test system: not listed separately
# Assay: Metabolic stability in mouse liver microsomes assessed as parent compound remaining at 1 uM preincubated for 5 mins followed by NADPH addition after 30 mins by LC-MS/MS analysis
# Type: ADME, Microsome
# Conditions: read-out: Stability
row,Compound,"remaining at 0.5 h, 1 µM [%]"
1,O=C(O)c1ccc(-n2cc(C(=O)c3c(Cl)cccc3C(F)(F)F)c3cccc(F)c32)cc1,88
2,O=C(O)c1ccc(-n2cc(C(=O)c3c(Cl)cccc3Cl)c3ccccc32)c(F)c1,91

# Test system: not listed separately
# Assay: Metabolic stability in rat liver microsomes assessed as parent compound remaining at 1 uM preincubated for 5 mins followed by NADPH addition after 30 mins by LC-MS/MS analysis
# Type: ADME, Microsome
# Conditions: read-out: Stability
row,Compound,"remaining at 0.5 h, 1 µM [%]"
1,O=C(O)c1ccc(-n2cc(C(=O)c3c(Cl)cccc3C(F)(F)F)c3cccc(F)c32)cc1,100
2,O=C(O)c1ccc(-n2cc(C(=O)c3c(Cl)cccc3Cl)c3ccccc32)c(F)c1,51

# Test system: not listed separately
# Assay: Cmax in mouse at 10 mg/kg, po
# Type: ADME, organism-based
# Set-up: dose 10 mg/kg, route oral
# Conditions: in vivo
row,Compound,Cmax [µM]
1,O=C(O)c1ccc(-n2cc(C(=O)c3c(Cl)cccc3Cl)c3ccccc32)c(F)c1,5.7

# Target: T1, Nuclear receptor ROR-gamma (Mus musculus) (UniProt P51450)
# T1 sequence (whole entry): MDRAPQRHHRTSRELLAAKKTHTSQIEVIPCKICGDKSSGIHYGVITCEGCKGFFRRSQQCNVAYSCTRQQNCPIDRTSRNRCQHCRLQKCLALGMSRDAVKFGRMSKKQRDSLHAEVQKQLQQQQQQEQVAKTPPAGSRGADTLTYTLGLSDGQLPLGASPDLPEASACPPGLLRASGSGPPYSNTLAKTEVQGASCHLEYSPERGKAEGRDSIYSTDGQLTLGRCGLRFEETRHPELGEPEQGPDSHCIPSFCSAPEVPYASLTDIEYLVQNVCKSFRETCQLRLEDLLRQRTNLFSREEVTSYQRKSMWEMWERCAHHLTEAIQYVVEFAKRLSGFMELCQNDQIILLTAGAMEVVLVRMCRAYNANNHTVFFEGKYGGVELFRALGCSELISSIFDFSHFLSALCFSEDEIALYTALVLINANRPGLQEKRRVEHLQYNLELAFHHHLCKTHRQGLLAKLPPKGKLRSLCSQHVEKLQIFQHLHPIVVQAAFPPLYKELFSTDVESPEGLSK
# Assay: Transrepression of RORgammat in Balb/c mouse splenocytes assessed as inhibition of anti-CD3/anti-CD28 stimulated IL-17 gene expression at 3 uM measured after 24 hrs in presence of anti-CD3/anti-CD28
# Type: cell-based
# Conditions: not given
row,Compound,inhibition [%]
1,O=C(O)c1ccc(-n2cc(C(=O)c3c(Cl)cccc3C(F)(F)F)c3cccc(F)c32)cc1,46

# Test system: not listed separately
# Assay: Half life in mouse at 3 mg/kg, iv
# Type: ADME, organism-based
# Conditions: in vivo
row,Compound,half-life [h]
1,O=C(O)c1ccc(-n2cc(C(=O)c3c(Cl)cccc3Cl)c3ccccc32)c(F)c1,1.8

# Test system: not listed separately
# Assay: Clearance in mouse at 3 mg/kg, iv
# Type: ADME, organism-based
# Conditions: in vivo
row,Compound,clearance [mL/min/kg]
1,O=C(O)c1ccc(-n2cc(C(=O)c3c(Cl)cccc3Cl)c3ccccc32)c(F)c1,21.2

# Test system: not listed separately
# Assay: Oral bioavailability in mouse at 10 mg/kg
# Type: ADME, organism-based
# Conditions: in vivo
row,Compound,bioavailability [%]
1,O=C(O)c1ccc(-n2cc(C(=O)c3c(Cl)cccc3Cl)c3ccccc32)c(F)c1,52

# Test system: not listed separately
# Assay: Volume of distribution at steady state in mouse at 3 mg/kg, iv
# Type: ADME, organism-based
# Conditions: in vivo, read-out: Vdss
row,Compound,Vd [L/kg]
1,O=C(O)c1ccc(-n2cc(C(=O)c3c(Cl)cccc3Cl)c3ccccc32)c(F)c1,2.8

# Target: T1, Nuclear receptor ROR-gamma (Mus musculus)
# Assay: Transrepression of RORgammat in Balb/c mouse splenocytes assessed as inhibition of anti-CD3/anti-CD28 stimulated IL-17 gene expression at 30 uM measured after 24 hrs in presence of anti-CD3/anti-CD28
# Type: cell-based
# Conditions: not given
row,Compound,inhibition [%]
1,O=C(O)c1ccc(-n2cc(C(=O)c3c(Cl)cccc3C(F)(F)F)c3cccc(F)c32)cc1,55

# Test system: not listed separately
# Assay: Metabolic stability in human liver microsomes assessed as parent compound remaining at 1 uM preincubated for 5 mins followed by NADPH addition after 30 mins by LC-MS/MS analysis
# Type: ADME, Microsome
# Conditions: read-out: Stability
row,Compound,"remaining at 0.5 h, 1 µM [%]"
1,O=C(O)c1ccc(-n2cc(C(=O)c3c(Cl)cccc3C(F)(F)F)c3cccc(F)c32)cc1,88
2,O=C(O)c1ccc(-n2cc(C(=O)c3c(Cl)cccc3Cl)c3ccccc32)c(F)c1,92

# Test system: not listed separately
# Assay: Tmax in mouse at 10 mg/kg, po
# Type: ADME, organism-based
# Conditions: in vivo
row,Compound,Tmax [h]
1,O=C(O)c1ccc(-n2cc(C(=O)c3c(Cl)cccc3Cl)c3ccccc32)c(F)c1,0.5

# Test system: not listed separately
# Assay: AUC (0 to 24 hrs) in mouse at 10 mg/kg, po
# Type: ADME, organism-based
# Set-up: dose 10 mg/kg, time < 24 hr, route oral
# Conditions: in vivo
row,Compound,AUC(0-t) at 24 h [µM·h]
1,O=C(O)c1ccc(-n2cc(C(=O)c3c(Cl)cccc3Cl)c3ccccc32)c(F)c1,9.1

# Target: T2, Nuclear receptor ROR-alpha (Homo sapiens, UniProt P35398)
# T2 sequence (P35398 whole entry): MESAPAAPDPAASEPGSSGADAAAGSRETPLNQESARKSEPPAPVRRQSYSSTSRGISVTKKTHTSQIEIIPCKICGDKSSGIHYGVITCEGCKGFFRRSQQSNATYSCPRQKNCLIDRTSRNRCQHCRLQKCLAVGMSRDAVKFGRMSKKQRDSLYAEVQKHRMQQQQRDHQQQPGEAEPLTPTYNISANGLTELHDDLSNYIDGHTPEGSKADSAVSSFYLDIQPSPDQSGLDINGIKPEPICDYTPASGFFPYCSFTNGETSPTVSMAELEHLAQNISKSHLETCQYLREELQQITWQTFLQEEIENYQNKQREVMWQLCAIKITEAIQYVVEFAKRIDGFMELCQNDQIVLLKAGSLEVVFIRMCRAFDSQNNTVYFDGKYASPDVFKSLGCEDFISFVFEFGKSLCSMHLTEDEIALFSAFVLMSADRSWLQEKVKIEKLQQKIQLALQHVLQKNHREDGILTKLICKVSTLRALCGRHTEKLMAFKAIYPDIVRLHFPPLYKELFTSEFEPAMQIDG
# Assay: Inhibition of GAL4-DBD fused RORalpha LBD (unknown origin) expressed in HEK293T cells
# Type: cell-based
# Conditions: not given
row,Compound,IC50 [µM]
1,O=C(O)c1ccc(-n2cc(C(=O)c3c(Cl)cccc3Cl)c3ccccc32)c(F)c1,> 30

# Target: T1, Nuclear receptor ROR-gamma (Mus musculus)
# Assay: Transrepression of RORgammat in Balb/c mouse splenocytes assessed as inhibition of anti-CD3/anti-CD28 stimulated IL-17 gene expression at 0.3 uM measured after 24 hrs in presence of anti-CD3/anti-CD28
# Type: cell-based
# Conditions: not given
row,Compound,inhibition [%]
1,O=C(O)c1ccc(-n2cc(C(=O)c3c(Cl)cccc3C(F)(F)F)c3cccc(F)c32)cc1,18
